Source: article PMC12472303 (2025)

Experiments:
[1] = test system: Tel22 (DNA, G4) AGGGTTAGGGTTAGGGTTAGGG; test: fluorimetric titration, SPECFIT; conditions: Na+ (sodium cacodylate, I = 0.1 M), pH 7.0, <0.1% DMSO
[2] = test system: Tel22 (DNA, G4) AGGGTTAGGGTTAGGGTTAGGG; test: UV thermal melting at 260 nm; conditions: Na+ (sodium cacodylate, I = 0.1 M), pH 7.0, Tel22 1–2 µM, r [compound]/[Tel22] = 4
[3] = test system: poly dAdT-poly dAdT (DNA, polymer) AT; test: UV thermal melting at 260 nm; conditions: Na+ (sodium cacodylate, I = 0.05 M), pH 7.0, polynucleotide 20 µM nucleotide, r [compound]/[polynucleotide] = 0.3, error ±0.5 °C, per base
[4] = test system: poly rA-poly rU (RNA, polymer) A/U; test: UV thermal melting at 260 nm; conditions: Na+ (sodium cacodylate, I = 0.05 M), pH 7.0, polynucleotide 20 µM nucleotide, r [compound]/[polynucleotide] = 0.3, error ±0.5 °C, per base
[5] = test system: poly dAdT-poly dAdT (DNA, polymer) AT; test: fluorimetric titration, Scatchard; conditions: Na+ (sodium cacodylate, I = 0.05 M), pH 7.0, per phosphate (nucleotide), n fixed at 0.2, <0.1% DMSO, per base
[6] = test system: poly dGdC-poly dGdC (DNA, polymer) GC; test: fluorimetric titration, Scatchard; conditions: Na+ (sodium cacodylate, I = 0.05 M), pH 7.0, per phosphate (nucleotide), n fixed at 0.2, <0.1% DMSO, per base
[7] = Na-cacodylate buffer, concentration as oligonucleotide

| Compound | log K1 ([1]; Na-cacodylate, second step LG + G = LG2 log K2 5.07 ± 0.26) [log K] | binding [2] | ΔTm [3] | ΔTm [4] | log K1 [1, 7] [log K] | log Ks [5] [log Ks] | log Ks [6] [log Ks] |
| --- | --- | --- | --- | --- | --- | --- | --- |
| N=C(N)Nc1ccc(-c2c3nc(c(-c4ccccc4)c4ccc([nH]4)c(-c4ccccc4)c4nc(c(-c5ccccc5)c5ccc2[nH]5)C=C4)C=C3)cc1 | 7.23 ± 0.49 |  |  |  |  |  |  |
| NC(N)=Nc1cc2ccccc2c2ccccc12 |  |  | +0.9 °C | +1.3 °C | 5.61 ± 0.02 | 6.27 | 5.34 |
| N=C(N)Nc1ccc2c3c(cccc13)-c1ccccc1-2 |  |  | 0 °C | +0.9 °C | 5.26 ± 0.13 |  |  |

The remaining lines, values ahead:

| log K1 ([1]; Na-cacodylate, second step LG + G = LG2 log K2 5.07 ± 0.26) [log K] | binding [2] | ΔTm [3] | ΔTm [4] | log K1 [1, 7] [log K] | log Ks [5] [log Ks] | log Ks [6] [log Ks] | Compound |
| --- | --- | --- | --- | --- | --- | --- | --- |
|  | weak | 0 °C | 0 °C | 5.36 ± 0.07 | 4.17 |  | N=C(N)Nc1ccc2ccccc2c1 |
|  |  | 0 °C | −1.0 °C | 5.78 ± 0.08 |  |  | N=C(N)Nc1ccc2c(c1)Cc1ccccc1-2 |
